We go through 5 compounds from patent US8367887B2, “Normal-tension glaucoma model and method for evaluation of test substances by using same” (Shinshu University, priority 2007, dated 2013).

Data set [1] relates to retinal ganglion cells. Put plainly: Screening of test substances: protection of retinal ganglion cells from NMDA-induced apoptosis in wild-type and NF-κBp50-deficient mice. The format is in vivo, mouse. As to conditions: 5 mM NMDA into vitreous; for effect of protecting retinal ganglion cells from NMDA-induced apoptosis (conclusion in words): wild-type and NF-κBp50-deficient mice, 24 hours. The procedure:
(§1) Intravitreal NMDA injection was performed. 2 μl of 5 mM solution of NMDA in buffered saline solution (BSS) was injected into the vitreous of the left eye of each mouse aged 2 months. The right eyes were injected with BSS alone. At 24 hours and 4 days after injection, the eyes were enucleated and fixed in 4% paraformaldehyde in PB, followed by dehydration and paraffin embedding. Tranverse sections were made through the optic disc and stained with hematoxylin and eosin (H&E). Cells of 0.35 mm length at 0.3 mm from the edge of the optic disc in the ganglion cell layer were counted except for cells infiltrating the ganglion cell layer. The average number of cells per field was analyzed, and statistical differences were analyzed by the Student's t test.
By intraperitoneal administration, phosphate buffered saline (PBS) as control substance was respectively administered to wild-type mice and NF-κBp50-deficient mice once daily for 7 days. 5 mM of NMDA was directly administered into vitreous of the mice, and then the number of retinal ganglion cells after 24 hours was counted.
By intraperitoneal administration, 10 mg/kg of memantine hydrochloride, which is used as a curative medicine for Alzheimer type dementia and is an antagonist of NMDA receptor as one of glutamic acid receptor, was respectively administered to wild-type mice and […] mice once daily for 7 days. 5 mM of NMDA was directly administered into vitreous of the mice, and then the number of retinal ganglion cells after 24 hours were counted.
100 mg/kg of lomerizine hydrochloride, which is used as a curative medicine for migraine and is a piperazine-type calcium inhibitor, was respectively administered orally via catheters to wild-type mice and NF-κBp50-deficient mice once daily for 7 days. 5 mM of NMDA was directly administered into vitreous thereof, and then the number of retinal ganglion cells after 24 hours was numerated.
By intraperitoneal administration, 10 mg/kg of MK-801, which is NMDA receptor antagonist and is (5S,10R)-[…]-5-methyl-10,11-dihydro-5H-dibenzo[a,d]-cyclo-hepten-5,10-imine hydrogen maleate, was respectively administered to wild-type mice and NF-κBp50-deficient mice once daily for 7 days. 5 mM of NMDA was directly administered into vitreous thereof, and then the number of retinal ganglion cells after 24 hours was counted.
A control group was kept alike with administration for 2 weeks instead of administration of PBS for 7 days under above-mentioned control group. On the other hand, 3 mg/kg of […] was respectively administered to wild-type mice and NF-κBp50-deficient mice once daily for 2 weeks by intraperitoneal administration. 5 mM of NMDA was directly administered into vitreous thereof, and then the number of retinal ganglion cells after 24 hours was counted.

Data set [2] has as its system retinal ganglion cells. In words: Susceptibility of NMDA-induced neurotoxicity (intravitreal NMDA, count of live ganglion cells) in wild-type and NF-κBp50-deficient mice. Particulars: for cell death in GCL (ganglion cell layer): 2 months old, 10 nmol NMDA intravitreal, 24 hours, FIG. 5. The format is in vivo, mouse. The procedure:
as §1
Since NMDA receptor-mediated excitotoxicity has been reported to contribute to glaucomatous neuropathy and the NMDA receptor-mediated […] leads apoptosis of the neurons, the effect of NF-κBp50 on NMDA-induced neurotoxicity was examined. NMDA has excitotoxicity at a high concentration of 100 nmol which promptly leads cell death. The results of histological examination of the retinas at 24 hours after intravitreal injection of 10 nmol NMDA, which is a relatively low concentration as for NMDA-induced neurotoxicity, are shown in FIG. 5.
The live cells were counted in length of 0.35 mm at 0.3 mm each from the edge of the optic disc. Bar graphs show the number of cells in GCL at time before and 24 hours after NMDA-treatment. The average number of cells per field was analyzed by the two-tailed t-test. Statistical differences were analyzed by the Student's t test. Data are mean±SEM (n=6 to 7 mice). *1p<0.01 versus wild-type mice. *2p<0.01 versus wild-type mice.
[…] of NMDA were directly administered into vitreous respectively, and then the number of live ganglion cells was counted. As a control, the number of live ganglion cells without administration of NMDA was also counted. […] On the other hand, in the case of wild-type mice and NF-κBp50-deficient mice with injection of […] NMDA, which is a relatively low concentration, while almost all of the ganglion cells in wild-type mice survived at 4 days after NMDA treatment, about 60% of the ganglion cells in NF-κBp50-deficient mice were dead within 24 hours by apoptosis and moreover almost all of them were dead within 96 hours.

Where [3] appears, read: wild-type mice and NF-κBp50-deficient mice, injection of 50 mM NMDA into vitreous, FIG. 6.

Counter-ions that a name gives are not always drawn.

For `C=CC[C@@H]1/C=C(\C)C[C@H](C)C[C@H](OC)[C@H]2O[C@@](O)(C(=O)C(=O)N3CCCC[C@H]3C(=O)O[C@H](/C(C)=C/[C@@H]3CC[C@@H](O)[C@H](OC)C3)[C@H](C)[C@@H](O)CC1=O)[C@H](C)C[C@@H]2OC` [KF506], the “retinal ganglion cells dead by apoptosis within 24 hours after administration of NMDA” value (“retinal ganglion cells dead” for short) in the data set on retinal ganglion cells [1] (NF-κBp50-deficient mice, 3 mg/kg intraperitoneal once daily for 2 weeks, FIG. 7f) is on record as “no more than 34%”; in the data set on retinal ganglion cells [1] (wild-type mice, 3 mg/kg intraperitoneal once daily for 2 weeks, FIG. 7f), “about 5%”.

As for `C[C@]12N[C@H](Cc3ccccc31)c1ccccc12` [MK-801, (5S,10R)-(−)-5-methyl-10,11-dihydro-5H-dibenzo[a,d]-cyclo-hepten-5,10-imine hydrogen maleate], the “retinal ganglion cells dead” value with retinal ganglion cells [1] (NF-κBp50-deficient mice, 10 mg/kg intraperitoneal once daily for 7 days, FIG. 7d) was “no more than 9%”; in the data set with retinal ganglion cells [1] (wild-type mice, 10 mg/kg intraperitoneal once daily for 7 days, FIG. 7d), “about 2%”. Further, the “effect of protecting retinal ganglion cells from NMDA-induced apoptosis (conclusion in words)” value in the data set on retinal ganglion cells [1] was “had pharmacological effects of protecting retinal ganglion cells from NMDA-induced apoptosis”.

Turning to `CN[C@H](CC(=O)O)C(=O)O` [NMDA, N-methyl D aspartate], in the data set with retinal ganglion cells [2] (NF-κBp50-deficient mice), the “cell death in GCL (ganglion cell layer)” value is given as “markedly induced cell death in GCL”. For the same compound, the “ganglion cells dead within 96 hours” value with retinal ganglion cells [2] (NF-κBp50-deficient mice, injection of 5 nM NMDA into vitreous, FIG. 6) is given as “almost all”. Besides, the “ganglion cells dead within 24 hours by apoptosis” value in the data set on retinal ganglion cells [2] (NF-κBp50-deficient mice, injection of 5 mM NMDA into vitreous, FIG. 6) is reported as “about 60%”. Further, in the data set with retinal ganglion cells [2] (setting [3]), the “ganglion cells dead by apoptosis within 24 hours after NMDA treatment” value is “about half” and the “ganglion cells dead by apoptosis within 96 hours (4 days)” value is listed as “almost all”. Moreover, in the data set on retinal ganglion cells [2] (wild-type mice), the “cell death in GCL (ganglion cell layer)” value was “no significance was observed”. Besides, in the data set on retinal ganglion cells [2] (wild-type mice, injection of 5 mM NMDA into vitreous, FIG. 6), the “ganglion cells survived at 4 days after NMDA treatment” value is “almost all”.

As to `COc1ccc(CN2CCN(C(c3ccc(F)cc3)c3ccc(F)cc3)CC2)c(OC)c1OC` [lomerizine hydrochloride], the “retinal ganglion cells dead” value in the data set on retinal ganglion cells [1] (NF-κBp50-deficient mice, 100 mg/kg orally via catheters once daily for 7 days, FIG. 7c) is “no more than 28%”; in the data set with retinal ganglion cells [1] (wild-type mice, 100 mg/kg orally via catheters once daily for 7 days, FIG. 7c), “about 2%”.

Take `CC12CC3CC(C)(C1)CC(N)(C3)C2` [memantine hydrochloride]: the “retinal ganglion cells dead” value in the data set on retinal ganglion cells [1] (NF-κBp50-deficient mice, 10 mg/kg intraperitoneal once daily for 7 days, FIG. 7b) is “about 15%”; in the data set with retinal ganglion cells [1] (wild-type mice, 10 mg/kg intraperitoneal once daily for 7 days, FIG. 7b), “about 3%”. The “effect of protecting retinal ganglion cells from NMDA-induced apoptosis (conclusion in words)” value in the data set with retinal ganglion cells [1] was “had pharmacological effects of protecting retinal ganglion cells from NMDA-induced apoptosis”.
